Measurements taken from ChEMBL document CHEMBL1201862, “PubChem BioAssay data set” (2004).
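96-well plates; 48 h exposure; 5 concentrations. Endpoints by linear interpolation between flanking doses. Not reached: highest tested concentration assigned. GI50 marks 50% less growth.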 Active and inactive are the calls of the source. Rule as the data show it: active = GI50 up to about 1.1 µM and inactive = higher.

Columns and labels:
Assay in all cases: growth of human tumour cells (NCI), 48 h
[1] = system: A498
[2] = system: A549
[3] = system: DU-145
[4] = system: HCT-116
[5] = system: HOP-92
[6] = system: K562
[7] = system: LOX IMVI
[8] = system: M14
[9] = system: MDA-MB-435
[10] = system: MOLT-4
[11] = system: NCI-H226
[12] = system: NCI-H23
[13] = system: OVCAR-4
[14] = system: RPMI-8226
[15] = system: SF-268
[16] = system: SF-539
[17] = system: SK-MEL-2
[18] = system: SNB-75
[19] = system: TK-10
[20] = system: UACC-257

Measured: GI50

O=C1OC2c3ccccc3C(=O)C2(c2ccccc2)N1c1ccccc1 (stereo not given)
inactive: [1] > 200 µM | [2] > 200 µM | [3] > 200 µM | [4] > 200 µM | [5] > 200 µM | [6] 139 µM | [7] > 200 µM | [8] > 200 µM | [9] > 200 µM | [10] 186 µM | [11] > 200 µM | [12] > 200 µM | [13] > 200 µM | [14] 132 µM | [15] > 200 µM | [16] > 200 µM | [17] > 200 µM | [18] 45.4 µM | [19] > 200 µM | [20] > 200 µM

CN(C)CCCN1c2ccc(O)cc2Sc2ccc(Cl)cc21 [7-HYDROXYCHLORPROMAZINE]
inactive: [1] 16.5 µM | [2] 13.5 µM | [3] 17.9 µM | [4] 6.3 µM | [5] 4.25 µM | [6] 3.86 µM | [7] 6.71 µM | [8] 5.97 µM | [9] 8.91 µM | [10] 3.18 µM | [11] 11.3 µM | [12] 17.7 µM | [13] 12.5 µM | [14] 4.5 µM | [15] 6.34 µM | [16] 14.6 µM | [17] 6.04 µM | [18] 8.63 µM | [19] 12.3 µM | [20] 1.71 µM

CCc1n[nH]c(=O)n1-c1ccc2ccccc2c1
inactive: [1] > 100 µM | [2] > 100 µM | [3] > 100 µM | [4] > 100 µM | [5] > 100 µM | [6] > 100 µM | [7] > 100 µM | [8] > 100 µM | [9] > 100 µM | [10] > 100 µM | [11] > 100 µM | [12] > 100 µM | [13] > 100 µM | [14] > 100 µM | [15] > 100 µM | [16] > 100 µM | [17] > 100 µM | [18] > 100 µM | [19] > 100 µM | [20] > 100 µM

O[C@@]1(c2cccs2)c2cccc(Cl)c2[C@](O)(c2cccs2)c2cccc(Cl)c21
inactive: [1] 12.6 µM | [2] 14.9 µM | [3] 24.7 µM | [4] 13.2 µM | [5] 67.9 µM | [6] 25.5 µM | [7] 16.4 µM | [8] 15.4 µM | [9] 17.2 µM | [10] 15.9 µM | [11] 22.1 µM | [12] 18.1 µM | [13] 18.2 µM | [14] 22 µM | [15] 19.8 µM | [16] 29.2 µM | [17] 18.2 µM | [18] > 100 µM | [19] 28.1 µM | [20] 15.2 µM

COc1ccc(C(=O)Nc2ccc3oc(-c4ccccc4)nc3c2)cc1
inactive: [1] > 100 µM | [2] > 100 µM | [3] > 100 µM | [4] > 100 µM | [5] > 100 µM | [6] > 100 µM | [7] > 100 µM | [8] > 100 µM | [9] > 100 µM | [10] > 100 µM | [11] > 100 µM | [12] > 100 µM | [13] > 100 µM | [14] > 100 µM | [15] > 100 µM | [16] 32.5 µM | [17] > 100 µM | [18] 29 µM | [19] > 100 µM | [20] > 100 µM
